Reference: patent US8993626B2, “Methods of treatment using sterculic acid” (The United States of America, as represented by the …, priority 2010, dated 2015)
Like-named read-outs stand apart in the source and are kept apart here.

What was measured:
Type in all cases: cell-based
ARPE-19 cells [1] = experiment: ELISA of secreted VEGF, IL-6, IL-8 in conditioned medium; conditions: 6 μM 7KCh alone or with 1 μM fatty acid, 48 hr
Procedure: FIGS. 16A-16E depict the secreted protein levels of (A) VEGF, (B) IL-6, and (C) IL-8 were measure by ELISA 48 hr after treatment with 6 μM 7KCh, 1 μM sterculic acid, 1 μM stearic acid, or the combinations of 7KCh with either sterculic acid or stearic acid. Error bars indicate the standard deviations. *p<0.05 comparing to 7KCh, n=3. Two-tailed Student's t-test. The expressions of GRP78 and CHOP were shown by immunoblots (D) 24 hr or (E) 48 hr after treatment with 8 μM 7KCh, 1 μM sterculic acid, 1 μM stearic acid, or the combinations of 7KCh with either sterculic acid or stearic acid.
(§1) ARPE-19 cells were seeded in 24-well plates with 1×10^5 cells per well and allowed to recover for 16-24 hr. Once confluency reached approximately 90%, the effect of the fatty acids against 7KCh-mediated cell death was examined 24 hr after incubation in serum-free medium with 12 μM 7KCh. Fatty acids were tested at 0.1, 0.5, 1, 5 and 10 μM concentrations. The effects of the fatty acids against 7KCh-mediated inflammation and ER stress were examined by incubating cells in 1 μM fatty acids with either 8 μM 7KCh (24 hr for quantitative real-time PCR (qRT-PCR), 24 and 48 hr for immunoblot), or 6 μM 7KCh for 48 hr (for ELISA). Three individual experiments were performed for each treatment with quadruplicate measurements performed for each experiment in 24-well plates.
The levels of secreted VEGF, IL-6, IL-8, and TNF-α in conditioned medium of ARPE-19 cell cultures were measured 48 hr after treatments of 6 μM 7KCh and 1 μM fatty acids using the Quantkine ELISA kits from R&D systems (Minneapolis, Minn.). The protein levels were measured in triplicates. The ELISA results were quantified using an Envision multilable plate reader (PerkinElmer, Covina, Calif.) and presented in percentage relative to the vehicle-only control.

HUVEC = HUVEC growth inhibition assay (crystal violet); conditions: for IC50: Homo sapiens
Procedure: HUVEC (1.5×10^3) are plated in a 96-well plate in […] of EBM-2 (Clonetic #CC3162). After 24 h (day 0), the test compound (100 μL) is added to each well at 2× the desired concentration (5-7 concentration levels) in EBM-2 medium. On day 0, one plate is stained with 0.5% crystal violet in 20% methanol for 10 minutes, rinsed with water, and air-dried. The remaining plates are incubated for 72 h at 37° C. After 72 h, plates are stained with 0.5% crystal violet in 20% methanol, rinsed with water, and air-dried. The stain is eluted with 1:1 solution of ethanol:0.1M sodium citrate (including day 0 plate), and absorbance is measured at 540 nm with an ELISA reader (Dynatech Laboratories). Day 0 absorbance is subtracted from the 72 h plates and data is plotted as percentage of control proliferation (vehicle treated cells). IC50 (drug concentration causing 50% inhibition) is calculated from the plotted data.

ARPE-19 cells [2] = experiment: qRT-PCR of inflammatory cytokines and ER stress markers, 7KCh-mediated inflammation
Procedure: FIGS. 13A-13D depict mRNA expressions of (A) VEGF, (B) IL-6, (C) GRP78, and (D) CHOP in response to 8 μM 7KCh with or without 1 μM long-chain fatty acids. Error bars indicate the standard deviations. *p<0.05 comparing to 7KCh, n=3. Two-tailed Student's t-test.
FIGS. 14A-14D depict mRNA expressions of (A) VEGF, (B) IL-1b, (C) IL-6, and (D) IL-8 in response to 8 μM 7KCh, 1 μM sterculic acid, 1 μM stearic acid, or the combinations of 7KCh with either sterculic acid or stearic acid. Error bars indicate the standard deviations. *p<0.05 comparing to 7KCh, n=4. Two-tailed Student's t-test.
FIGS. 15A-15D depict mRNA expressions of (A) TNF-α, (B) TGF-β1, (C) GRP78, and (D) CHOP in response to 8 μM 7KCh, 1 μM sterculic acid, 1 μM stearic acid, or the combinations of 7KCh with either sterculic acid or stearic acid. Error bars indicate the standard deviations. *p<0.05 comparing to 7KCh, n=3-4. Two-tailed Student's t-test.
as §1
The RNA was extracted using RNeasy Mini Kit (Qiagen, Valencia, Calif.). The reverse transcription was performed with reagents and kits from Invitrogen. Quantification of mRNA expression was performed using the Taqman gene expression assays and the following primers (VEGFa, Hs00173626_m1; IL-1β, Hs01555413_m1; IL-6, Hs00174131_m1; IL-8, Hs00174103_m1; IκBα, Hs00153283_m1; GRP78, Hs99999174_m1; CHOP, Hs01090850_m1; NOX2, Hs00166163_m1; NOX4, Hs01558199_m1; SCD, Hs00748952 s1; TNF-α, Hs00174128_m1; TGF-β1, Hs00998133_m1; GAPD, 4352934e). GAPD expression was used as an endogenous standard. All qRT-PCR experiments were measured in triplicates in an ABI 7500 Real-Time PCR Instrument (Applied Biosystems, Foster City, Calif.). The results of each treatment were normalized and presented in percentage relative to the vehicle-only control.

Compound: CCCCCCCCC1=C(CCCCCCCC(=O)O)C1 [sterculic acid, 8-(2-octacyclopropen-1-yl)octanoic acid]
- secreted IL-6 protein expression (ARPE-19 cells [1]): 1.4 fold
- secreted IL-8 protein expression (ARPE-19 cells [1]): 1.1 fold
- secreted VEGF protein expression (ARPE-19 cells [1]): 1.1 fold
- apoptosis induction (HUVEC; HUVEC): no apoptosis
- IC50 (HUVEC; HUVEC, 72 h, read-out: IC50 value of the anti-proliferative effect): ~11.7 µM
- IC50 (HUVEC; HUVEC proliferation, read-out: IC50 (drug concentration causing 50% inhibition)): 18.6 µM
- effect on 7KCh-mediated mRNA induction (inflammatory response) (ARPE-19 cells [2]; 1 μM fatty acid + 8 μM 7KCh, 24 hr, FIG. 13): complete inhibition
- effect of fatty acid alone on the mRNA expression of the cytokines (ARPE-19 cells [2]; 1 μM fatty acid alone, no 7KCh, FIGS. 14, 15): no effect
- VEGF mRNA expression (ARPE-19 cells [2]; 8 μM 7KCh alone or with 1 μM fatty acid, 24 hr, FIG. 13A): basal levels
- IL-6 mRNA expression (ARPE-19 cells [2]; 8 μM 7KCh alone or with 1 μM fatty acid, 24 hr, FIG. 13B): basal levels
- GRP78 mRNA expression (ARPE-19 cells [2]; 8 μM 7KCh alone or with 1 μM fatty acid, 24 hr, FIG. 13C): basal levels
- CHOP mRNA expression (ARPE-19 cells [2]; 8 μM 7KCh alone or with 1 μM fatty acid, 24 hr, FIG. 13D): basal levels
- induction of VEGF mRNA (ARPE-19 cells [2]; 8 μM 7KCh alone or with 1 μM fatty acid, FIG. 14A): 2.5 fold
- induction of IL-1β mRNA (ARPE-19 cells [2]; 8 μM 7KCh alone or with 1 μM fatty acid, FIG. 14B): 3.9 fold
- induction of IL-6 mRNA (ARPE-19 cells [2]; 8 μM 7KCh alone or with 1 μM fatty acid, FIG. 14C): 5.1 fold
- induction of IL-8 mRNA (ARPE-19 cells [2]; 8 μM 7KCh alone or with 1 μM fatty acid, FIG. 14D): 1.8 fold
- induction of TNF-α mRNA (ARPE-19 cells [2]; 8 μM 7KCh alone or with 1 μM fatty acid, FIG. 15A): 1.5 fold
- induction of TGF-β1 mRNA (ARPE-19 cells [2]; 8 μM 7KCh alone or with 1 μM fatty acid, FIG. 15B): 1 fold
- induction of GRP78 mRNA (ARPE-19 cells [2]; 8 μM 7KCh alone or with 1 μM fatty acid, FIG. 15C): 1.3 fold
- induction of CHOP mRNA (ARPE-19 cells [2]; 8 μM 7KCh alone or with 1 μM fatty acid, FIG. 15D): 4.1 fold
